# From patent US7897162B2, “Arthropod repellent pharmacophore models, compounds identified as fitting the pharmacophore models, and methods of making and using thereof” (The United States of America as represented by the …, priority 2003, dated 2011)
# Columns and labels:
# [1] = system: arthropod; details: Table 1, training set of 11 repellents; protection (repelling) time; cited from earlier work
# [2] = system: arthropods; experiment: Arthropod repellent test of short-listed compounds found by pharmacophore database search; type: in vivo; details: for Experimental PT: Table 3, compounds identified by database search; for repellent activity against arthropods (in words): short list of 138 compounds from in-house CIS screened
# Description: As provided in Example 4, the pharmacophore model of the present invention was used to search three-dimensional multiconformer databases, including an in-house Chemical Information System (Chemical Information System, Division of Experimental Therapeutics, Walter Reed Army Institute of Research, Silver Spring, Md.), National Cancer Institute, IBS and Maybridge databases, to screen for potential new repellent agents. The Chemical Information System database has over 240,000 compounds and was transformed into a multiconformer database in CATALYST® using the catDB® utility program as implemented in the software. The catDB® format allows a molecule to be represented by a limited set of conformations thereby permitting conformational flexibility to be included during the search of the database.
# Specifically, the three-dimensional pharmacophore of the present invention was used as a template for search various three-dimensional multi-conformer databases. Three-dimensional multi-conformer databases of molecules comprise all possible conformations of the three-dimensional structure of each molecule in the database within an energy range of 0 to 25 kcal/mol. The three-dimensional structures in the databases were mapped to or compared with the three-dimensional pharmacophore of the present invention to identify compounds having the same or similar three-dimensional conformations.
# The compounds were short listed on the basis of their ADME (Absorption, Distribution, Metabolism, and Excretion) properties and were evaluated by rapid in silico screening using Cerus^2ADME methodology. See Cerius^2ADME. Accelrys Inc. (2003) San Diego, Calif. The short listed compounds were then tested for arthropod repellent property using methods known in the art. See e.g. Debboun, et al. (1999) J. Am. Mosq. Cont. Assoc. 15(3):342-347; and Gupta, R K and Rutledge, L C (1991) J. Am. Mosq. Cont. Assoc. 7:490-493, which are herein incorporated by reference.
# Three-dimensional multiconformer databases, including an in-house Chemical Information System (Chemical Information System, Division of Experimental Therapeutics, Walter Reed Army Institute of Research, Silver Spring, Md.), National Cancer Institute, IBS and Maybridge databases, were screened for potential new repellent agents using the pharmacophore model of the present invention. The Chemical Information System database of the Division of Experimental Therapeutics, WRAIR is a database of more than 245,000 proprietary compounds. By using the catDB utility program of the CATALYST®, the database was transformed into a multi-conformer based 3D database. The database searching protocol in the CATALYST® involves a rapid 3D screening process followed by a rigorous atom-by-atom mapping in which a fairly comprehensive set of features including the chemical features of the pharmacophore are considered. In addition to the traditional pharmacophore based searching, 3D shape similarity and partial match searching may also be performed. See Kurogi, Y and Gunner, O F (2001) Current Medicinal Chemistry 8:1035-1055, which is herein incorporated by reference.
# [3] = system: mosquitoes; details: cited from earlier work
# [4] = system: arthropods; details: under warm, humid conditions; cited from earlier work
# [5] = system: white rats; details: cited from earlier work
smiles,measurement,setting,value
CCOc1ccccc1C(=O)N(CC)CC,Experimental PT,[1],0.5 h
CCCN(CCC)C(=O)COCc1ccccc1,Experimental PT,[1],0.5 h
CCCCN1C(O)=CC(C)c2ccccc21 (centres unmarked),Experimental PT,[1],2.0 h
CCCN(CCC)C(=O)c1ccccc1OCC,Experimental PT,[1],0.3 h
CCCCC(CC)(CO)CO,Experimental PT,[1],1.7 h
CCCCON1CN(C)N(OCCCC)C1=O,Experimental PT,[1],0.6 h
CCN(CC)C(=O)c1ccccc1Cl,Experimental PT,[1],1.2 h
ClOc1c(Cl)c(Cl)c(Cl)c(Cl)c1Cl,Experimental PT,[1],0.2 h
O=C(OCCCO)c1ccccc1,Experimental PT,[1],7.5 h
CC(C)COC(=O)CC(O)C(=O)OCC(C)C (centres unmarked),Experimental PT,[1],2.5 h
CC(C)(Oc1ccccc1Cl)C(N)=O [2-(2-chloro-phenoxy)-2-methyl-propionamide],Experimental PT,[2],2.6 h
same,repellent activity against arthropods (in words),[2],found to exhibit repellent activity against arthropods
C=CCSc1nccnc1C [2-allylsulfanyl-3-methyl-pyrazine],Experimental PT,[2],1.6 h
same,repellent activity against arthropods (in words),[2],found to exhibit repellent activity against arthropods
"COc1ccc(OC)c(C(=O)CBr)c1 [2-bromo-1-(2,5-dimethoxy-phenyl)-ethanone]",Experimental PT,[2],2.6 h
same,repellent activity against arthropods (in words),[2],found to exhibit repellent activity against arthropods
"CCN(CC)C(=O)CC1CCCCC1 [2-cyclohexyl-N,N-diethylacetamide]",Experimental PT,[2],0.24 h
"Cc1cc(C)c(C)c(C(=O)C(C)C)c1C [2-methyl-1-(2,3,5,6-tetramethyl-phenyl)-propan-1-one]",Experimental PT,[2],9.3 h
same,repellent activity against arthropods (in words),[2],found to exhibit repellent activity against arthropods
CCCCCCCCC(O)C1CCC(CCCCC(=O)O)O1 (centres unmarked) [5-[5-(1-hydroxy-nonyl)-tetrahydro-furan-2-yl]-pentanoic acid],landing and feeding deterrence,[3],acts as a landing and feeding deterrent for mosquitoes
"CCN(CC)C(=O)c1cccc(C)c1 [DEET, N,N-diethyl-m-toluamide]",duration of application,[4],1 to 2 h
same,toxicity on regular skin application,[5],gonadotoxic and embryotoxic
same,Experimental PT,[1],1.0 h
"CCN(CC)C(=O)Cc1cccc(Br)c1 [N,N-diethyl-2-(3-bromo-phenyl)-acetamide]",Experimental PT,[2],0.63 h
"CCN(CC)C(=O)Cc1cccc(C(F)(F)F)c1 [N,N-diethyl-2-(3-trifluoromethyl-phenyl)-acetamide]",Experimental PT,[2],0.14 h
"CCN(CC)C(=O)c1cccc(C(F)(F)F)c1 [N,N-diethyl-3-trifluoromethyl-benzamide]",Experimental PT,[2],0.5 h
